The text below walks through data of patent publication US7807369B2, “Methods and means for the treatment of HPV induced intraepithelial neoplasia” (Leiden University Medical Center, priority 2005, dated 2010).

The subject of experiment [1] is HPV16 VLP-specific IgG and IgA. In words: HPV16 VLP ELISA of serum over time in imiquimod-treated patients. In kind it is in vivo, human. The following applies: serum at week 0, 8 and 16; 17 VIN3 patients. The procedure: IgG and IgA reactivity to HPV16 VLPs over time in 17 VIN3 patients treated with imiquimod. At least two serum specimens were tested in every patient. Serological responses are shown at week 0 (before imiquimod treatment), week 8 (during imiquimod treatment) and at week 16 (after imiquimod treatment). The OD values are depicted as median ±SD of positive responses. The OD values were calculated by subtraction of the background response value and the mean OD value of the young children's sera.
(§1) Seventeen of these 29 subjects (age 29-60 years, median 43 years) were experimentally treated with a 5% imiquimod cream. The patients were asked to apply the cream to the affected areas on the vulva twice weekly overnight for a maximum period of 16 weeks. In order to analyze the effect of imiquimod treatment on the HPV16-specific immune response, we collected serial blood and serum samples before the start of imiquimod treatment (T=0), after 8 weeks of treatment (T=8), and at the end of treatment (T=16). Vulvar lesions were assessed by direct measurement and photographic records at entry, and after 8 and 16 weeks of treatment. Clinical responses were defined as a complete response (CR), a partial response type1 (PR1), as defined by a reduction in lesion diameter from 76-99%, a partial response type2 (PR2), as defined by a reduction in lesion diameter from 26-75%, or no clinical response. […]
Background: An ELISA detects its analyte on a solid surface through an enzyme-linked reagent.

The subject of a further experiment is VIN. To be noted: topical treatment of VIN; estimate from refs 17-21; cited from earlier work.
The test system of the next experiment is high-grade VIN. The experiment is described as follows: Clinical response of high-grade VIN lesions to 5% imiquimod cream. Type of experiment: in vivo, human. The source says:
Twenty-nine women with high-grade VIN (age range, 24-73 years; median age, 47 years) were recruited from the departments of gynecology of the Academic Medical Center, and Leiden and Erasmus University Medical Center, The Netherlands. On the average, these patients had been diagnosed with VIN3 5,4 years before enrollment in the study (range, 6 months-15 years). Eighteen women had undergone previous treatments for VIN3 (surgical excision, laser therapy or imiquimod treatment (#21, 24, 27)) before study entry.
Seventeen of these 29 subjects (age 29-60 years, median 43 years) were experimentally treated with a 5% imiquimod cream. The patients were asked to apply the cream to the affected areas on the vulva twice weekly overnight for a maximum period of 16 weeks. In order to analyze the effect of imiquimod treatment on the HPV16-specific immune response, we collected serial blood and serum samples before the start of imiquimod treatment (T=0), after 8 weeks of treatment (T=8), and at the end of treatment (T=16). Vulvar lesions were assessed by direct measurement and photographic records at entry, and after 8 and 16 weeks of treatment. Clinical responses were defined as a complete response (CR), a partial response type1 (PR1), as defined by a reduction in lesion diameter from 76-99%, a partial response type2 (PR2), as defined by a reduction in lesion diameter from 26-75%, or no clinical response.
Statistical analysis of the HPV16-specific proliferative responses associated with cytokine production was performed using Fisher's exact test. Fisher's Exact test (2-tailed) was used to analyze HPV-specific immunity to clinical response upon treatment with imiquimod. Statistical analyzes were performed using Graphpad Instat Software (version 3.0).

In experiment [2] the test system is HPV16-specific IFNγ-producing T-cells. The experiment is described as follows: HPV16-specific T-cell reactivity by IFNγ ELISPOT before, during and after imiquimod treatment. Type of experiment: in vivo, human. The following applies: PBMC at week 0, 8 and 16.
Text: as §1, with “treatment.” for “treatment. Clinical responses were defined as a complete response (CR), a partial response type1 (PR1), as defined by a reduction in lesion diameter from 76-99%, a partial response type2 (PR2), as defined by a reduction in lesion diameter from 26-75%, or no clinical response.”
The number of IFNγ producing HPV-specific T-cells, present in the peripheral blood of the 17 patients treated with imiquimod, was quantified using ELISPOT that was performed as described previously (29; 30). […] Spots were counted with a fully automated computer-assisted-video-imaging analysis system (Bio Sys). Specific spots were calculated by subtracting the mean number of spots+2×SD of the medium control from the mean number of spots in experimental wells provided that the mean number of spots of the medium control wells were either <10 or >10 with a standard deviation <20% of the mean. […]

[3] abbreviates: of 17 women treated, 5% cream, max 16 weeks.

Regarding `CC(C)Cn1cnc2c(N)nc3ccccc3c21` [imiquimod, 1-(2-methylpropyl)-1H-imidazo[4,5-c]quinolin-4-amine], the “change of HPV16 VLP-specific IgG and IgA response” value in experiment [1] is “did not overly change”. Also, the clinical success rates with VIN was 30-87%. For the same compound, the “women with overt clinical response (CR or PR1, 76-100% reduction in lesion size)” value with high-grade VIN (13 of 17 women with high-grade VIN, 5% cream twice weekly, max 16 weeks) stood at 76%. Moreover, the “likelihood of CR or PR1 in patients without an HPV-specific immune response” value with high-grade VIN (HPV16+ patients (n=15), versus those with a response, p=0.03, 2-sided Fisher's exact test) is on record as “less likely to show such a clinical improvement”. Moreover, in the experiment on high-grade VIN (setting [3]), the “patients with no reduction in size of the affected area of vulvar disease” value is “Three” and the “patients with only minimal improvement upon treatment” value is listed as “one”. In the experiment on high-grade VIN (the 8 HPV16+ patients with an HPV-specific Th1 immune response (of n=15 HPV16+)), the “patients with complete or near complete clinical response (CR or PR1)” value is listed as 8 patients. In addition, the “effect on numbers of HPV16-specific T-cells” value in experiment [2] is “In none of the patients a clear-cut increase of HPV16-specific T-cells was detected”.
